In patent US8815864B2, “Indanyloxydihydrobenzofuranylacetic acids” (Boehringer Ingelheim International GmbH, priority 2012, dated 2014) one finds EC50 data, which are given here for 31 compounds.

For this experiment, the target named is human GPR40 receptor (Homo sapiens, UniProt O14842). The experiment is described as follows: IP1 accumulation measurements using the IPOne assay system. In kind it is cell-based. Particulars: 1321N1 cells stably expressing human GPR40; stimulation 1 h at 37° C. How it is done: IP1 accumulation measurements using the IPOne assay system—1321N1 cells stably expressing human GPR40 receptor (Euroscreen, Belgium) are seeded 24 h before the assay in white 384-well plates in culture medium containing 10% FCS, 1% Na-Pyruvate and 400 μg/mL G418. IP1 is assayed according to the manufacturer's description (Cisbio Bioassays, France). In brief, the assay is started by substitution of the culture medium by stimulation buffer (Hepes 10 mM, CaCl2 1 mM, MgCl2 0.5 mM, KCl 4.2 mM, NaCl 146 mM, glucose 5.5 mM and LiCl 50 mM, pH 7.4). Cells are stimulated for 1 h at 37° C., 5% CO2 by addition of the compounds that are diluted in stimulation buffer containing LiCl. Assays are stopped by adding HTRF-conjugates (IP1-d2 and Anti-IP1 cryptate Tb) and lysis buffer, provided by the manufacturer. After an incubation time of 1 h at room temperature plates are measured using an EnVision™, Perkin Elmer. The obtained fluorescence ratios at 665/615 […] are then used to calculate the pEC50 values using Assay Explorer 3.3 Software (Accelrys, Inc.) by interpolation using an IP1 reference curve and subsequent sigmoidal curve fitting allowing for a variable hill slope.
Chain of human GPR40 receptor (O14842 whole entry): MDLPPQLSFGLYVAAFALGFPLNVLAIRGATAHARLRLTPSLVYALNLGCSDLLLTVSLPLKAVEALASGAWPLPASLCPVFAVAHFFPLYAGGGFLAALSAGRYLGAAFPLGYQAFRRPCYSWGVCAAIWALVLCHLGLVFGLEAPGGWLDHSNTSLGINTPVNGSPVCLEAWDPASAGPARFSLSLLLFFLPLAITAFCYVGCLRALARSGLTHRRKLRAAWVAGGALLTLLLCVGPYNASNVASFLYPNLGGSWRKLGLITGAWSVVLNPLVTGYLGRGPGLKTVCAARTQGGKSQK
Consider `Cn1c(Oc2ccc(F)c3c2CC[C@H]3Oc2ccc3c(c2)OC[C@H]3CC(=O)O)nc2ccccc21` [Example 13, {(S)-6-[(R)-7-Fluoro-4-(1-methyl-1H-benzoimidazol-2-yloxy)-indan-1-yloxy]-2,3-dihydro-benzofuran-3-yl}-acetic acid], for which the EC50 (in general, the concentration giving half of the maximal effect) was found to be 0.216 µM. Consider `O=C(O)C[C@@H]1COc2cc(O[C@@H]3CCc4c(Oc5nc6ccccc6s5)ccc(F)c43)ccc21` [Example 12, {(S)-6-[(R)-4-Benzothiazol-2-yloxy-7-fluoro-indan-1-yloxy]-2,3-dihydro-benzofuran-3-yl}-acetic acid], for which a half-maximal response (EC50) required 0.012 µM. To `O=C(O)C[C@@H]1COc2cc(O[C@@H]3CCc4c(Oc5cccc6cccnc56)ccc(F)c43)ccc21` [Example 39, {(S)-6-[(R)-7-Fluoro-4-(Quinolin-8-yloxy)-indan-1-yloxy]-2,3-dihydro-benzofuran-3-yl}-acetic acid] belongs 0.021 µM; to `COc1ccc(Oc2ccc(F)c3c2CC[C@H]3Oc2ccc3c(c2)OC[C@H]3CC(=O)O)cc1` [Example 3, {(S)-6-[(R)-7-Fluoro-4-(4-methoxy-phenoxy)-indan-1-yloxy]-2,3-dihydro-benzofuran-3-yl}-acetic acid], 0.003 µM. Under `COc1cc(C#N)ccc1Oc1ccc(F)c2c1CC[C@H]2Oc1ccc2c(c1)OC[C@H]2CC(=O)O` [Example 52, {(S)-6-[(R)-4-(4-Cyano-2-methoxy-phenoxy)-7-fluoro-indan-1-yloxy]-2,3-dihydro-benzofuran-3-yl}-acetic acid] stands 0.006 µM; under `N#Cc1ccc(Oc2ccc(F)c3c2CC[C@H]3Oc2ccc3c(c2)OC[C@H]3CC(=O)O)c(C#N)c1` [Example 41, {(S)-6-[(R)-4-(2,4-Dicyano-phenoxy)-7-fluoro-indan-1-yloxy]-2,3-dihydro-benzofuran-3-yl}-acetic acid], 0.017 µM. For `O=C(O)C[C@@H]1COc2cc(O[C@@H]3CCc4c(Oc5ccccn5)ccc(F)c43)ccc21` [Example 7, {(S)-6-[(R)-7-Fluoro-4-pyrid-2-yloxy-indan-1-yloxy]-2,3-dihydro-benzofuran-3-yl}-acetic acid], the EC50 came to 0.032 µM. Compared with the last compound, the EC50 is about 1.9-fold higher.

`N#Cc1ccc(F)c(Oc2ccc(F)c3c2CC[C@H]3Oc2ccc3c(c2)OC[C@H]3CC(=O)O)c1` [Example 54, {(S)-6-[(R)-4-(5-Cyano-2-fluoro-phenoxy)-7-fluoro-indan-1-yloxy]-2,3-dihydro-benzofuran-3-yl}-acetic acid] displayed an EC50 of 0.029 µM. To `N#Cc1ccc(Oc2ccc(F)c3c2CC[C@H]3Oc2ccc3c(c2)OC[C@H]3CC(=O)O)c(F)c1` [Example 22, {(S)-6-[(R)-4-(4-Cyano-2-fluoro-phenoxy)-7-fluoro-indan-1-yloxy]-2,3-dihydro-benzofuran-3-yl}-acetic acid] belongs 0.003 µM.

Compound `COc1ccc(Oc2ccc(F)c3c2CC[C@H]3Oc2ccc3c(c2)OC[C@H]3CC(=O)O)nn1` [Example 16, {(S)-6-[(R)-7-Fluoro-4-(6-methoxy-pyridazin-3-yloxy)-indan-1-yloxy]-2,3-dihydro-benzofuran-3-yl}-acetic acid] showed an EC50 of 0.138 µM. Under `N#Cc1ccc(Br)cc1Oc1ccc(F)c2c1CC[C@H]2Oc1ccc2c(c1)OC[C@H]2CC(=O)O` [Example 50, {(S)-6-[(R)-4-(5-Bromo-2-cyano-phenoxy)-7-fluoro-indan-1-yloxy]-2,3-dihydro-benzofuran-3-yl}-acetic acid] stands 0.006 µM; under `N#Cc1ccc(F)cc1Oc1ccc(F)c2c1CC[C@H]2Oc1ccc2c(c1)OC[C@H]2CC(=O)O` [Example 30, {(S)-6-[(R)-4-(2-Cyano-5-fluoro-phenoxy)-7-fluoro-indan-1-yloxy]-2,3-dihydro-benzofuran-3-yl}-acetic acid], 0.011 µM; under `Cc1cc2c(cnn2C)cc1Oc1ccc(F)c2c1CC[C@H]2Oc1ccc2c(c1)OC[C@H]2CC(=O)O` [Example 47, {(S)-6-[(R)-7-Fluoro-4-(1,6-dimethyl-1H-indazol-5-yloxy)-indan-1-yloxy]-2,3-dihydro-benzofuran-3-yl}-acetic acid], 0.026 µM. Under `N#Cc1ccc(Oc2ccc(F)c3c2CC[C@H]3Oc2ccc3c(c2)OC[C@H]3CC(=O)O)cc1` [Example 8, {(S)-6-[(R)-4-(4-Cyano-phenoxy)-7-fluoro-indan-1-yloxy]-2,3-dihydro-benzofuran-3-yl}-acetic acid] stands 0.004 µM; under `COc1cccc(Oc2ccc(F)c3c2CC[C@H]3Oc2ccc3c(c2)OC[C@H]3CC(=O)O)c1` [Example 2, {(S)-6-[(R)-7-Fluoro-4-(3-methoxy-phenoxy)-indan-1-yloxy]-2,3-dihydro-benzofuran-3-yl}-acetic acid], 0.006 µM; under `COc1cc(Oc2ccc(F)c3c2CC[C@H]3Oc2ccc3c(c2)OC[C@H]3CC(=O)O)ccn1` [Example 36, {(S)-6-[(R)-7-Fluoro-4-(2-methoxy-pyrid-4-yloxy)-indan-1-yloxy]-2,3-dihydro-benzofuran-3-yl}-acetic acid], 0.004 µM. To `N#Cc1cccc(Oc2ccc(F)c3c2CC[C@H]3Oc2ccc3c(c2)OC[C@H]3CC(=O)O)c1` [Example 27, {(S)-6-[(R)-4-(3-Cyano-phenoxy)-7-fluoro-indan-1-yloxy]-2,3-dihydro-benzofuran-3-yl}-acetic acid] belongs 0.007 µM. `O=C(O)C[C@@H]1COc2cc(O[C@@H]3CCc4c(Oc5ccc6ccccc6n5)ccc(F)c43)ccc21` [Example 40, {(S)-6-[(R)-7-Fluoro-4-(Quinolin-2-yloxy)-indan-1-yloxy]-2,3-dihydro-benzofuran-3-yl}-acetic acid] registered an EC50 of 0.022 µM. This EC50 lies about 3.1-fold higher than the previous one. To `CS(=O)(=O)c1ccc(Oc2ccc(F)c3c2CC[C@H]3Oc2ccc3c(c2)OC[C@H]3CC(=O)O)cc1` [Example 18, {(S)-6-[(R)-7-Fluoro-4-(4-methylsulfonyl-phenoxy)-indan-1-yloxy]-2,3-dihydro-benzofuran-3-yl}-acetic acid] belongs 0.041 µM; to `COc1ccc(Oc2ccc(F)c3c2CC[C@H]3Oc2ccc3c(c2)OC[C@H]3CC(=O)O)nc1` [Example 44, {(S)-6-[(R)-7-Fluoro-4-(5-methoxy-pyrid-2-yloxy)-indan-1-yloxy]-2,3-dihydro-benzofuran-3-yl}-acetic acid], 0.019 µM. Under `Cc1c(Oc2ccc(F)c3c2CC[C@H]3Oc2ccc3c(c2)OC[C@H]3CC(=O)O)ccc2c1cnn2C` [Example 53, {(S)-6-[(R)-7-Fluoro-4-(1,4-dimethyl-1H-indazol-5-yloxy)-indan-1-yloxy]-2,3-dihydro-benzofuran-3-yl}-acetic acid] stands 0.069 µM. To `O=C(O)C[C@@H]1COc2cc(O[C@@H]3CCc4c(Oc5ccc(OC(F)F)cn5)ccc(F)c43)ccc21` [Example 25, {(S)-6-[(R)-4-(5-Difluoromethoxy-pyrid-2-yloxy)-7-fluoro-indan-1-yloxy]-2,3-dihydro-benzofuran-3-yl}-acetic acid] belongs 0.013 µM; to `N#Cc1ccccc1Oc1ccc(F)c2c1CC[C@H]2Oc1ccc2c(c1)OC[C@H]2CC(=O)O` [Example 17, {(S)-6-[(R)-4-(2-Cyano-phenoxy)-7-fluoro-indan-1-yloxy]-2,3-dihydro-benzofuran-3-yl}-acetic acid], 0.004 µM.

In turn, `Cc1ccccc1Oc1ccc(F)c2c1CC[C@H]2Oc1ccc2c(c1)OC[C@H]2CC(=O)O` [Example 4, {(S)-6-[(R)-7-Fluoro-4-(2-methyl-phenoxy)-indan-1-yloxy]-2,3-dihydro-benzofuran-3-yl}-acetic acid] had an EC50 of 0.006 µM. On to `COc1ccc(Oc2ccc(F)c3c2CC[C@H]3Oc2ccc3c(c2)OC[C@H]3CC(=O)O)c(F)c1` [Example 56, {(S)-6-[(R)-4-(2-Fluoro-4-methoxy-phenoxy)-7-fluoro-indan-1-yloxy]-2,3-dihydro-benzofuran-3-yl}-acetic acid], for which the EC50 came out at 0.006 µM. That is a single-digit nanomolar value. Under `O=C(O)C[C@@H]1COc2cc(O[C@@H]3CCc4c(Oc5ncc(F)cn5)ccc(F)c43)ccc21` [Example 33, {(S)-6-[(R)-7-Fluoro-4-(5-fluoro-pyrimid-2-yloxy)-indan-1-yloxy]-2,3-dihydro-benzofuran-3-yl}-acetic acid] stands 0.031 µM; under `O=C(O)C[C@@H]1COc2cc(O[C@@H]3CCc4c(Oc5nc6ccccc6o5)ccc(F)c43)ccc21` [Example 19, {(S)-6-[(R)-4-Benzoxazol-2-yloxy-7-fluoro-indan-1-yloxy]-2,3-dihydro-benzofuran-3-yl}-acetic acid], 0.013 µM; under `O=C(O)C[C@@H]1COc2cc(O[C@@H]3CCc4c(Oc5ncc6ccccc6n5)ccc(F)c43)ccc21` [Example 43, {(S)-6-[(R)-7-Fluoro-4-(Quinazolin-2-yloxy)-indan-1-yloxy]-2,3-dihydro-benzofuran-3-yl}-acetic acid], 0.034 µM. To `CN(C)c1ccc(Oc2ccc(F)c3c2CC[C@H]3Oc2ccc3c(c2)OC[C@H]3CC(=O)O)cn1` [Example 31] belongs 0.12 µM. To `O=C(O)C[C@@H]1COc2cc(O[C@@H]3CCc4c(Oc5cnccn5)ccc(F)c43)ccc21` [Example 10, {(S)-6-[(R)-7-Fluoro-4-pyrazin-2-yloxy-indan-1-yloxy]-2,3-dihydro-benzofuran-3-yl}-acetic acid] belongs 0.035 µM; to `Cn1cnc2cc(Oc3ccc(F)c4c3CC[C@H]4Oc3ccc4c(c3)OC[C@H]4CC(=O)O)ccc21` [Example 42, {(S)-6-[(R)-7-Fluoro-4-(1-methyl-1H-benzoimidazol-5-yloxy)-indan-1-yloxy]-2,3-dihydro-benzofuran-3-yl}-acetic acid], 0.891 µM.
